Laboratory results from patent US10112937B2, “P2X7 modulators and methods of use” (Janssen Pharmaceutica NV, priority 2013, dated 2018).

Target: human P2X7 (Homo sapiens (Human), UniProt Q99572)
Assay: P2X7 antagonism in human PBMCs (IL-1β release after LPS + Bz-ATP, ELISA)
Type: cell-based
Conditions: human PBMCs, test compound 10 μM

human P2X7, sequence (Q99572 whole entry): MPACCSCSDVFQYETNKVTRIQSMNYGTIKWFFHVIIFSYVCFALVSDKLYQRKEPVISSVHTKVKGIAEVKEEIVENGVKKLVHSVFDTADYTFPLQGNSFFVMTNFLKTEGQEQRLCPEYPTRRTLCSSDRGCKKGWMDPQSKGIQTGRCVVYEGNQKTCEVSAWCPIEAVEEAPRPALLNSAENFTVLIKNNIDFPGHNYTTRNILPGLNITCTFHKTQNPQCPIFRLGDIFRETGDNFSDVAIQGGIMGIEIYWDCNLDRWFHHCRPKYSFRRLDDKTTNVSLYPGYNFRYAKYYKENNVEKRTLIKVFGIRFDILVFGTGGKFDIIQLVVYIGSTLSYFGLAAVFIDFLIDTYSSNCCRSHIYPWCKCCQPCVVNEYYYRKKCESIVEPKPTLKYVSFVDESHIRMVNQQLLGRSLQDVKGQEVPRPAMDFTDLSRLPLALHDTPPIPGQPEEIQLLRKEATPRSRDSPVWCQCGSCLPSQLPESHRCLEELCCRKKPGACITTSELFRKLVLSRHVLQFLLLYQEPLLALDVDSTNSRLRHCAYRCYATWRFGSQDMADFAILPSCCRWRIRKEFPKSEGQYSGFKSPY

Structure (SMILES) | PBMC 10 μM (% control)
C[C@@H]1Cc2c(nnn2-c2ccn[nH]2)CN1C(=O)c1cccc(C(F)(F)F)c1F (single isomer, unassigned) [Example 348, (R*)-(2-fluoro-3-(trifluoromethyl)phenyl)(6-methyl-1-(1H-pyrazol-5-yl)-6,7-dihydro-1H-[1,2,3]triazolo[4,5-c]pyridin-5(4H)-yl)methanone] | 77.7 % control
C[C@@H]1Cc2c(nnn2-c2ccn[nH]2)CN1C(=O)c1cccc(C(F)(F)F)c1Cl (single isomer, unassigned) [Example 350, (R*)-(2-chloro-3-(trifluoromethyl)phenyl)(6-methyl-1-(1H-pyrazol-5-yl)-6,7-dihydro-1H-[1,2,3]triazolo[4,5-c]pyridin-5(4H)-yl)methanone] | 16.2 % control
C[C@H]1Cc2c(nnn2-c2ccn[nH]2)CN1C(=O)c1cccc(C(F)(F)F)c1Cl (single isomer, unassigned) [Example 351, (S*)-(2-chloro-3-(trifluoromethyl)phenyl)(6-methyl-1-(1H-pyrazol-5-yl)-6,7-dihydro-1H-[1,2,3]triazolo[4,5-c]pyridin-5(4H)-yl)methanone] | 0.6 % control
Cc1cc(-n2nnc3c2CCN(C(=O)c2cc(C(F)(F)F)ccc2Cl)[C@@H]3C)ncc1F (single isomer, unassigned) [Example 353, (R*)-(2-chloro-5-(trifluoromethyl)phenyl)(1-(5-fluoro-4-methylpyridin-2-yl)-4-methyl-6,7-dihydro-1H-[1,2,3]triazolo[4,5-c]pyridin-5(4H)-yl)methanone] | 107.5 % control
Cc1cc(-n2nnc3c2CCN(C(=O)c2cc(C(F)(F)F)ccc2Cl)[C@H]3C)ncc1F (single isomer, unassigned) [Example 354, (S*)-(2-chloro-5-(trifluoromethyl)phenyl)(1-(5-fluoro-4-methylpyridin-2-yl)-4-methyl-6,7-dihydro-1H-[1,2,3]triazolo[4,5-c]pyridin-5(4H)-yl)methanone] | 83.4 % control
Cc1ccnc(-n2nnc3c2CCN(C(=O)c2ccnc(C(F)(F)F)c2Cl)[C@@H]3C)c1 (single isomer, unassigned) [Example 359, (R*)-(3-chloro-2-(trifluoromethyl)pyridin-4-yl)(4-methyl-1-(4-methylpyridin-2-yl)-6,7-dihydro-1H-[1,2,3]triazolo[4,5-c]pyridin-5(4H)-yl)methanone] | −8.2 % control
Cc1ccnc(-n2nnc3c2CCN(C(=O)c2ccnc(C(F)(F)F)c2Cl)[C@H]3C)c1 (single isomer, unassigned) [Example 360, (S*)-(3-chloro-2-(trifluoromethyl)pyridin-4-yl)(4-methyl-1-(4-methylpyridin-2-yl)-6,7-dihydro-1H-[1,2,3]triazolo[4,5-c]pyridin-5(4H)-yl)methanone] | −7.1 % control
Cc1cc(-n2nnc3c2CCN(C(=O)c2ccc(Cl)c(C(F)(F)F)c2)[C@@H]3C)ncc1F (single isomer, unassigned) [Example 365, (R*)-(4-chloro-3-(trifluoromethyl)phenyl)(1-(5-fluoro-4-methylpyridin-2-yl)-4-methyl-6,7-dihydro-1H-[1,2,3]triazolo[4,5-c]pyridin-5(4H)-yl)methanone] | 108.2 % control
Cc1cc(-n2nnc3c2CCN(C(=O)c2ccc(Cl)c(C(F)(F)F)c2)[C@H]3C)ncc1F (single isomer, unassigned) [Example 366, (S*)-(4-chloro-3-(trifluoromethyl)phenyl)(1-(5-fluoro-4-methylpyridin-2-yl)-4-methyl-6,7-dihydro-1H-[1,2,3]triazolo[4,5-c]pyridin-5(4H)-yl)methanone] | 2.0 % control
Cc1cc(-n2nnc3c2CCN(C(=O)c2ccnc(C(F)(F)F)c2F)[C@H]3C)ncc1F (single isomer, unassigned) [Example 369, (S*)-(3-fluoro-2-(trifluoromethyl)pyridin-4-yl)(1-(5-fluoro-4-methylpyridin-2-yl)-4-methyl-6,7-dihydro-1H-[1,2,3]triazolo[4,5-c]pyridin-5(4H)-yl)methanone] | 74.5 % control
Cc1ccnc(-n2nnc3c2CCN(C(=O)c2cccc(OC(F)(F)F)c2)[C@@H]3C)c1 (single isomer, unassigned) [Example 376, (R*)-(4-methyl-1-(4-methylpyridin-2-yl)-6,7-dihydro-1H-[1,2,3]triazolo[4,5-c]pyridin-5(4H)-yl)(3-(trifluoromethoxy)phenyl)methanone] | 96.3 % control
C[C@H]1c2nnn(-c3cccc(C(F)(F)F)n3)c2CCN1C(=O)c1cccc(C(F)(F)F)c1Cl (single isomer, unassigned) [Example 380, (S*)-(2-chloro-3-(trifluoromethyl)phenyl)(4-methyl-1-(6-(trifluoromethyl)pyridin-2-yl)-6,7-dihydro-1H-[1,2,3]triazolo[4,5-c]pyridin-5(4H)-yl)methanone] | 113.7 % control
Cc1cc(-n2nnc3c2CCN(C(=O)c2cccc(C(F)(F)F)c2Cl)[C@H]3C)ncc1F (single isomer, unassigned) [Example 383, (S*)-(2-chloro-3-(trifluoromethyl)phenyl)(1-(5-fluoro-4-methylpyridin-2-yl)-4-methyl-6,7-dihydro-1H-[1,2,3]triazolo[4,5-c]pyridin-5(4H)-yl)methanone] | 87.3 % control
Cc1cccc(-n2nnc3c2CCN(C(=O)c2cccc(C(F)(F)F)c2F)[C@@H]3C)n1 (single isomer, unassigned) [Example 386, (R*)-(2-fluoro-3-(trifluoromethyl)phenyl)(4-methyl-1-(6-methylpyridin-2-yl)-6,7-dihydro-1H-[1,2,3]triazolo[4,5-c]pyridin-5(4H)-yl)methanone] | 107.5 % control
Cc1cccc(-n2nnc3c2CCN(C(=O)c2cccc(Cl)c2Cl)[C@@H]3C)n1 (single isomer, unassigned) [Example 389, (R*)-(2,3-dichlorophenyl)(4-methyl-1-(6-methylpyridin-2-yl)-6,7-dihydro-1H-[1,2,3]triazolo[4,5-c]pyridin-5(4H)-yl)methanone] | 88.9 % control
Cc1cccc(-n2nnc3c2CCN(C(=O)c2cccc(Cl)c2Cl)[C@H]3C)n1 (single isomer, unassigned) [Example 390, (S*)-(2,3-dichlorophenyl)(4-methyl-1-(6-methylpyridin-2-yl)-6,7-dihydro-1H-[1,2,3]triazolo[4,5-c]pyridin-5(4H)-yl)methanone] | 6.5 % control
Cc1ccnc(-n2nnc3c2CCN(C(=O)c2cccc(Cl)c2Cl)[C@@H]3C)n1 (single isomer, unassigned) [Example 391, (R*)-(2,3-dichlorophenyl)(4-methyl-1-(4-methylpyrimidin-2-yl)-6,7-dihydro-1H-[1,2,3]triazolo[4,5-c]pyridin-5(4H)-yl)methanone] | 112.1 % control
Cc1ccnc(-n2nnc3c2CCN(C(=O)c2cccc(Cl)c2Cl)[C@@H]3C)c1 (single isomer, unassigned) [Example 394, (R*)-(2,3-dichlorophenyl)(4-methyl-1-(4-methylpyridin-2-yl)-6,7-dihydro-1H-[1,2,3]triazolo[4,5-c]pyridin-5(4H)-yl)methanone] | 6.2 % control
